Legend:
[1] = target: T1, human mGlu2 receptor (Homo sapiens, UniProt Q14416); assay: mGlu2 receptor cAMP antagonist assay; type: cell-based; settings: reversal of DCG IV (EC90) inhibition of forskolin-stimulated cAMP; relative IC50
T1 construct: expressed in transfected cells; host or cells: AV12 cells co-expressing rat EAAT1
Protocol: (§1) Antagonist activity is assayed in recombinant AV12 cells stably expressing human mGlu2 or mGlu3 receptors and the rat glutamate transporter EAAT1 (Excitatory Amino Acid Transporter 1). The cell lines are maintained by culturing in DMEM with high glucose and pyridoxine hydrochloride supplemented with 5% dialyzed fetal bovine serum (FBS), 1 mM sodium pyruvate, 1 mM HEPES and 1 mM L-glutamine; geneticin and hygromycin B are used as selection antibiotics.
(§2) Reversal of the inhibition of forskolin-stimulated cAMP production by test compounds is measured using homogeneous time resolved fluorescence technology (HTRF; Cisbio cat #62AM4PEB). The medium is removed and the cells are incubated with 100 μl cAMP stimulation buffer (STIM) for 30 minutes at 37° C. […] Cells are incubated at 37° C. for 20 minutes. To measure the cAMP levels, cAMP-d2 conjugate and anti cAMP-cryptate conjugate in lysis buffer are incubated with the treated cells at room temperature for 1 hour (mGlu2) or 1.5 hour (mGlu3). […] The raw data are converted to cAMP amount (pmole/well) using a cAMP standard curve generated for each experiment. Relative IC50 values are calculated from the top-bottom range of the concentration response curve using a four-parameter logistic curve fitting program (ActivityBase v5.3.1.22).

[2] = target: T2, human mGlu6 receptor (Homo sapiens, UniProt O15303); assay: mGlu6 cAMP antagonist assay (reference agonist L-AP4); type: cell-based; settings: cAMP format
T2 construct: expressed in transfected cells; host or cells: AV12 cells co-expressing rat EAAT1
From the text: (§3) The relative antagonist potencies of the compounds of the invention for the other human mGlu receptors can be assessed with either a cAMP assay or fluorometric calcium response assay (see for example Fell et al., JPET (in press)). Briefly, individual AV12 cell lines containing the rat EAAT1 glutamate transporter and stably expressing the human mGlu1, 2, 3, 4, 5, 6, & 8 receptors are used for these studies. The mGlu1 and 5 receptors are Gq-coupled, so they naturally signal through phospholipase C, producing a calcium flux response which can be used to measure receptor activation using a Fluorometric Imaging Plate Reader (FLIPR, Molecular Devices). The cell lines expressing the mGlu2, 3, 4, and 8 receptor are designed to express the Gα15 subunit so that these Gi-coupled receptors will generate a calcium flux response similar to the mGlu1 and 5 receptor expressing cell lines. The mGlu6 receptor is tested in a cAMP format using methods analogous to those developed for mGlu2 and mGlu3 above. […]
Antagonist activity in mGlu6 cells is measured using cAMP in a method analogous to that described above for mGlu2 and mGlu3 activity, except that the reference agonist was L-AP4 (Tocris). […] Relative IC50 and EC50 values are calculated from the top-bottom range of the concentration response curve using a four-parameter logistic curve fitting program (ActivityBase v5.3.1.22).

[3] = target: T3, human mGlu5 receptor (Homo sapiens, UniProt P41594); assay: FLIPR calcium antagonist assay for mGlu receptor selectivity, mGlu5; type: cell-based; settings: inhibition of EC90 glutamate response, read-out: mGlu5 % inhib. @12.5 μM
T3 construct: expressed in transfected cells; host or cells: AV12 cells co-expressing rat EAAT1
From the text: as §3, with “Devices).” for “Devices). The cell lines expressing the mGlu2, 3, 4, and 8 receptor are designed to express the Gα15 subunit so that these Gi-coupled receptors will generate a calcium flux response similar to the mGlu1 and 5 receptor expressing cell lines. The mGlu6 receptor is tested in a cAMP format using methods analogous to those developed for mGlu2 and mGlu3 above.”
(§4) Intracellular calcium levels are monitored using FLIPR before and after the addition of test compounds and Fluo-3 AM (Invitrogen) or Calcium 4 (Molecular Devices) dye, depending on the cell line. […] The results are analyzed using GraphPad Prism v4.03 to calculate the concentrations of glutamate needed to induce the EC90 (antagonist assay) and EC10 (potentiator assay) responses.
(§5) Compounds are tested at each mGlu receptor in a two-addition FLIPR assay using a 10-point concentration response profile starting at a final concentration of 25 μM for the agonist assay and 12.5 μM for the potentiator and antagonist assays. […] Agonist effects are quantified as percent stimulation induced by compound alone relative to the maximal glutamate response. […]

[4] = target: T4, human mGlu1 receptor (Homo sapiens, UniProt Q13255); assay: FLIPR calcium antagonist assay for mGlu receptor selectivity, mGlu1; type: cell-based; settings: inhibition of EC90 glutamate response, read-out: mGlu1 % inhib. @12.5 μM
T4 construct: expressed in transfected cells; host or cells: AV12 cells co-expressing rat EAAT1
From the text: as §3, with “Devices).” for “Devices). The cell lines expressing the mGlu2, 3, 4, and 8 receptor are designed to express the Gα15 subunit so that these Gi-coupled receptors will generate a calcium flux response similar to the mGlu1 and 5 receptor expressing cell lines. The mGlu6 receptor is tested in a cAMP format using methods analogous to those developed for mGlu2 and mGlu3 above.”
as §4, §5

[5] = system: mGlu2+/+ and mGlu2−/− mice; assay: mFST in mGlu2 knock-out mice and +/+ littermates; settings: 10 mg/kg, i.p., 30 min prior
Protocol: Briefly, male NIH-Swiss mice (Harlan Sprague-Dawley, Indianapolis, Ind.) weighing between 25-30 g are used. Group housed animals are removed from the vivarium to the testing area in their own cages and allowed to adapt to the new environment for at least 1 hour before testing. […] Mice are placed in a cylinder (diameter: 10 cm; height: 25 cm) filled with 6 cm of water (22-25° C.) for 6 min. The duration of immobility during the last 4 min. of the 6 min. period of the test was scored. A mouse is recorded as immobile when floating motionless or making only those movements necessary to keep its head above water.
In other experiments, mice with receptor deletions (mGlu2 knock-out mice) are studied; these mice are bred by heterozygote×heterozygote breeding and used as littermates for −/− and +/+ mouse comparisons (Taconic Farms).

[6] = target: T5, human mGlu3 receptor (Homo sapiens, UniProt Q14832); assay: mGlu3 receptor cAMP antagonist assay; type: cell-based; settings: reversal of DCG IV (EC90) inhibition of forskolin-stimulated cAMP; relative IC50
T5 construct: expressed in transfected cells; host or cells: AV12 cells co-expressing rat EAAT1
Protocol: as §1, §2

[7] = target: T6, human mGlu8 receptor (Homo sapiens, UniProt O00222); assay: FLIPR calcium antagonist assay for mGlu receptor selectivity, mGlu8; type: cell-based
T6 construct: expressed in transfected cells; host or cells: AV12 cells co-expressing rat EAAT1 and Galpha15
From the text: The relative antagonist potencies of the compounds of the invention for the other human mGlu receptors can be assessed with either a cAMP assay or fluorometric calcium response assay (see for example Fell et al., JPET (in press)). Briefly, individual AV12 cell lines containing the rat EAAT1 glutamate transporter and stably expressing the human mGlu1, 2, 3, 4, 5, 6, & 8 receptors are used for these studies. The mGlu1 and 5 receptors are Gq-coupled, so they naturally signal through phospholipase C, producing a calcium flux response which can be used to measure receptor activation using a Fluorometric Imaging Plate Reader (FLIPR, Molecular Devices). The cell lines expressing the mGlu2, 3, 4, and 8 receptor are designed to express the Gα15 subunit so that these Gi-coupled receptors will generate a calcium flux response similar to the mGlu1 and 5 receptor expressing cell lines. The mGlu6 receptor is tested in a cAMP format using methods analogous to those developed for mGlu2 and mGlu3 above. These cell lines are maintained as previously described except that amounts of L-glutamine and selection agents (geneticin, hygromycin B, zeocin, and blasticidin) may vary depending on the cell line. Confluent cultures are passaged biweekly.
Intracellular calcium levels are monitored using FLIPR before and after the addition of test compounds and Fluo-3 AM (Invitrogen) or Calcium 4 (Molecular Devices) dye, depending on the cell line. Cells are plated 24 hours prior to assay in a variable concentration of glutamine and a variable density of cells per well, depending on the cell line. The medium is removed and the cells are incubated with 8 μM of dye (50 μl per well) for 90 or 120 minutes (depending on cell line) at 25° C. […] The results are analyzed using GraphPad Prism v4.03 to calculate the concentrations of glutamate needed to induce the EC90 (antagonist assay) and EC10 (potentiator assay) responses.
Compounds are tested at each mGlu receptor in a two-addition FLIPR assay using a 10-point concentration response profile starting at a final concentration of 25 μM for the agonist assay and 12.5 μM for the potentiator and antagonist assays. […] Agonist effects are quantified as percent stimulation induced by compound alone relative to the maximal glutamate response. Antagonist effects are quantified by calculating the percent inhibition of the EC90 glutamate response caused by the compound. Potentiation effects are quantified as percent increase in the presence of an EC10 response in glutamate relative to the ECmax response. All data are calculated as relative IC50 or EC50 values using a four-parameter logistic curve fitting program (ActivityBase v5.3.1.22).

[8] = target: T7, human mGlu4 receptor (Homo sapiens, UniProt Q14833); assay: FLIPR calcium antagonist assay for mGlu receptor selectivity, mGlu4; type: cell-based; settings: inhibition of EC90 glutamate response, read-out: mGlu4 % inhib. @12.5 μM
T7 construct: expressed in transfected cells; host or cells: AV12 cells co-expressing rat EAAT1 and Galpha15
From the text: as §3, with “Devices).” for “Devices). The cell lines expressing the mGlu2, 3, 4, and 8 receptor are designed to express the Gα15 subunit so that these Gi-coupled receptors will generate a calcium flux response similar to the mGlu1 and 5 receptor expressing cell lines. The mGlu6 receptor is tested in a cAMP format using methods analogous to those developed for mGlu2 and mGlu3 above.”
as §4, §5

[9] = system: male NIH-Swiss mice; assay: Forced-swim test in mice (mFST); type: in vivo, mouse; settings: i.p.

T6 sequence (O00222 34-908): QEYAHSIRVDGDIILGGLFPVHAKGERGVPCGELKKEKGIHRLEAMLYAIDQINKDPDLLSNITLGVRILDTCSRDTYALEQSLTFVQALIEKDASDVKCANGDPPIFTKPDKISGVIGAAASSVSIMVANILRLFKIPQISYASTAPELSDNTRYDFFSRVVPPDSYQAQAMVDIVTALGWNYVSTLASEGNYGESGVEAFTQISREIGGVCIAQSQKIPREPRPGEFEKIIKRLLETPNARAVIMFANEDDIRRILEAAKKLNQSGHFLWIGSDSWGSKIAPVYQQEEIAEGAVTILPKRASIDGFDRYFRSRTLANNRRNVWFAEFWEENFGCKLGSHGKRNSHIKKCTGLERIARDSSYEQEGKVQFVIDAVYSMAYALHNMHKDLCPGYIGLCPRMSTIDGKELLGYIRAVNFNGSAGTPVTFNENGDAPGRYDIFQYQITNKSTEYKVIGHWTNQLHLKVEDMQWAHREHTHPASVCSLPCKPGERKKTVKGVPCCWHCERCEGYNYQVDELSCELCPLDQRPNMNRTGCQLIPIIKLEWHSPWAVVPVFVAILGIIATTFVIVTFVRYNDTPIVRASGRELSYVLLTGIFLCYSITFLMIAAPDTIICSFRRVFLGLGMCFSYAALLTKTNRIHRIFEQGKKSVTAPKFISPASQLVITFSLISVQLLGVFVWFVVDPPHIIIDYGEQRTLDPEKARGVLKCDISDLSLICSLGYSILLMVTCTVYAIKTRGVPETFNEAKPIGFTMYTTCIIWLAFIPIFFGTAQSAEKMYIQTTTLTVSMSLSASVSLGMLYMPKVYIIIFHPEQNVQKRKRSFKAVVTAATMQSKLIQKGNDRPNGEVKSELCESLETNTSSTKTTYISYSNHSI
T7 sequence (Q14833 33-912): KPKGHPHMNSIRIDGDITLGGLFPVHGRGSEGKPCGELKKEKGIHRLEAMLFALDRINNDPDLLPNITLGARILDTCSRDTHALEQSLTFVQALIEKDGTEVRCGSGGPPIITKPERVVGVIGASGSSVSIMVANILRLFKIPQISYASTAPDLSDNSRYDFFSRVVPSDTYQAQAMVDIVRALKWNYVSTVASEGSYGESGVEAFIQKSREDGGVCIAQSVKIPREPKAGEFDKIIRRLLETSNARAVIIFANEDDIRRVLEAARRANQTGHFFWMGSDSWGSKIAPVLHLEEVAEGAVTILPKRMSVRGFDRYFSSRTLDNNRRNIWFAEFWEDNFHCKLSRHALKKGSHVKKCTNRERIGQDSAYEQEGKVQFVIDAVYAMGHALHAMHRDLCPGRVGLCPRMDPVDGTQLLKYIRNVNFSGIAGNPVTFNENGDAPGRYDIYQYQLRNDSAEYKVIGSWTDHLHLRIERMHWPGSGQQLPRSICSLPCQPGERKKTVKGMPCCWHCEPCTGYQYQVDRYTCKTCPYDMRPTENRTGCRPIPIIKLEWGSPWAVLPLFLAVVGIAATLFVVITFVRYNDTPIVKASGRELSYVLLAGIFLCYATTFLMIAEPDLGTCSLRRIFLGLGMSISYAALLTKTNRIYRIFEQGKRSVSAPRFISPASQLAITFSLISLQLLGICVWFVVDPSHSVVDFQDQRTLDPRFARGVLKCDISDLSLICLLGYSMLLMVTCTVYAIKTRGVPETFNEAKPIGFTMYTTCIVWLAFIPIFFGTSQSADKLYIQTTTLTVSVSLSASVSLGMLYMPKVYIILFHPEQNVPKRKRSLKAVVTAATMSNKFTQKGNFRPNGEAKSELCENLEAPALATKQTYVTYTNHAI
T5 sequence (Q14832 23-879): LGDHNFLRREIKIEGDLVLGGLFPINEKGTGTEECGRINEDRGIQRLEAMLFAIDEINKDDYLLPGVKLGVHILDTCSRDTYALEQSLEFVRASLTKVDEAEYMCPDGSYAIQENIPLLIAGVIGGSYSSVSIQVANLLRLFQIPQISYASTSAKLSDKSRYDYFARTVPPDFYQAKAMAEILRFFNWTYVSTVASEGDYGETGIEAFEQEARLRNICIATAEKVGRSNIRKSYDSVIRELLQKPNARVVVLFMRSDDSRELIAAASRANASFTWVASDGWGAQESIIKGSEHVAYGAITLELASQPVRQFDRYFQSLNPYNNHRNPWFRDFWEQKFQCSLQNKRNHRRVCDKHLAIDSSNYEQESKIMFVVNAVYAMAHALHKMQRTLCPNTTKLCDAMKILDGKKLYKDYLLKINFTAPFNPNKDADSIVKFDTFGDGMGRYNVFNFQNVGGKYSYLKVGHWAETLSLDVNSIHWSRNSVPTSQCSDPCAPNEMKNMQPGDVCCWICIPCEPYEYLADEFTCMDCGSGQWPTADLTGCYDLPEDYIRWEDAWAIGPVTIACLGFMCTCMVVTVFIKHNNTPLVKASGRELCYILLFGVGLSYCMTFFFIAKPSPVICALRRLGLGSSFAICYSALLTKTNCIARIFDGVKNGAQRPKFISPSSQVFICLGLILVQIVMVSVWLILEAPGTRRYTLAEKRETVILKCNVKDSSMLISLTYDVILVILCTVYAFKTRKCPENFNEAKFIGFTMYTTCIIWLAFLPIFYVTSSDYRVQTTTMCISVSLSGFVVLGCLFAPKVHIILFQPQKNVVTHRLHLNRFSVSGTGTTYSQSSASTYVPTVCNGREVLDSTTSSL
T1 sequence (Q14416 19-872): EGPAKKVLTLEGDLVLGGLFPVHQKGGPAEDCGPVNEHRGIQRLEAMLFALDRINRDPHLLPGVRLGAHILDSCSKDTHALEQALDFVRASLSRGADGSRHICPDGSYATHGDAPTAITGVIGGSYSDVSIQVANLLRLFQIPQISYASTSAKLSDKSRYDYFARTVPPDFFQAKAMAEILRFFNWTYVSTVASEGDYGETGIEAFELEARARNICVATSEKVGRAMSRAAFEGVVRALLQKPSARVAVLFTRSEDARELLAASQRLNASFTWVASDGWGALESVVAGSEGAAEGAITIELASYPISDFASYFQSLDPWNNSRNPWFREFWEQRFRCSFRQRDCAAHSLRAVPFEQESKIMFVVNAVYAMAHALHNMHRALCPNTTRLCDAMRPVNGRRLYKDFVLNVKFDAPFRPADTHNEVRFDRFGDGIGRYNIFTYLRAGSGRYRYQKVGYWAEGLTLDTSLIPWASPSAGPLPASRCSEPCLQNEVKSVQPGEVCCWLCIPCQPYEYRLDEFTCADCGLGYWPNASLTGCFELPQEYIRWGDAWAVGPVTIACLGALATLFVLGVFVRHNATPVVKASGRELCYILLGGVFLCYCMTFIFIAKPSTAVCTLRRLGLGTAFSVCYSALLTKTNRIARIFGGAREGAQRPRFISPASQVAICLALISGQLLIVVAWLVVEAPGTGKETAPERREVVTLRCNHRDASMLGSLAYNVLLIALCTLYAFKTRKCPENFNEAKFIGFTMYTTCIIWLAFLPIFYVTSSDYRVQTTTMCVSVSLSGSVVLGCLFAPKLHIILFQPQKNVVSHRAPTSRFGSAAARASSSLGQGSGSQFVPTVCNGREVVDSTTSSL
T4 sequence (Q13255 19-1194): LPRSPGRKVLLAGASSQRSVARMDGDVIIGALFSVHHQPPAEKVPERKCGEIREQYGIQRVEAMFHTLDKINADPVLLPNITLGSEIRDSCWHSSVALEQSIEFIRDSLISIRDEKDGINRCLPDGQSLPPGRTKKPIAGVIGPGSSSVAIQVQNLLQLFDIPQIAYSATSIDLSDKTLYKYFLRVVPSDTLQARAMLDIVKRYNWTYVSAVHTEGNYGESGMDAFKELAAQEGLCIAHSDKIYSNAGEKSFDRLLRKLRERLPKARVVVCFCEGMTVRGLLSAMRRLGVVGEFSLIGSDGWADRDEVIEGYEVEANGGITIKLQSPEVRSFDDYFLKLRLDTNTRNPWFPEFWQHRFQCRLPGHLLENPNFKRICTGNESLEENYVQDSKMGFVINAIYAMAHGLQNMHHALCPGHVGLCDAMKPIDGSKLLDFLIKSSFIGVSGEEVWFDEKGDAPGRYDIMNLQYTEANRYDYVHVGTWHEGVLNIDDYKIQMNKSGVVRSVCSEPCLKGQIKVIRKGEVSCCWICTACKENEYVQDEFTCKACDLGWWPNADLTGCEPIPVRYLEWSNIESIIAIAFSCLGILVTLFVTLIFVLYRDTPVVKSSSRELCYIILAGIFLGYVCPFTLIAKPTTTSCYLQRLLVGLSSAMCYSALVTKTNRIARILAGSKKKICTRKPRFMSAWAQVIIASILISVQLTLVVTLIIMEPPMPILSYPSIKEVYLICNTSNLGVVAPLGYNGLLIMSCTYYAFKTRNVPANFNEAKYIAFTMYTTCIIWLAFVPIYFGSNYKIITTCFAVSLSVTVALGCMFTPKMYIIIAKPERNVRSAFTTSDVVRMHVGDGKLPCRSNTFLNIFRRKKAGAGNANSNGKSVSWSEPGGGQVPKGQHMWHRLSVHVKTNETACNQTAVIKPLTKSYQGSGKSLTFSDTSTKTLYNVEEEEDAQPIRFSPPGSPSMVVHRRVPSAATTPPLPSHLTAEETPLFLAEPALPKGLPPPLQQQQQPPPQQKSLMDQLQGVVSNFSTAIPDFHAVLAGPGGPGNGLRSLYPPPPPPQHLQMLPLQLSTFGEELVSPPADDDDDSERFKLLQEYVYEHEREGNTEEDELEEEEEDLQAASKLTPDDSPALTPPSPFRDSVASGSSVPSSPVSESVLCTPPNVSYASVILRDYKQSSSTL

## Cl.N[C@]1(C(=O)O)[C@@H]2[C@@H](C(=O)O)[C@@H]2[C@H](O)[C@H]1CSc1ccc(F)c(Cl)c1 [Example 2, (1S,2R,3S,4S,5R,6R)-2-Amino-3-{[(3-chloro-4-fluorophenyl)sulfanyl]methyl}-4-hydroxybicyclo[3.1.0]hexane-2,6-dicarboxylic acid hydrochloride]
[1]
  IC50: 12.7 ± 2.3 nM
[2]
  IC50: 1390 nM
[3]
  inhibition at 12.5 µM: 21.4%
[4]
  inhibition at 12.5 µM: 7.9%
[5]
  immobility time in mGlu2+/+ mice: significantly decrease immobility time
[6]
  IC50: 13.4 ± 3.4 nM
[7]; 12.5 μM, inhibition of EC90 glutamate response, read-out: mGlu8 % inhib. @12.5 μM
  inhibition at 12.5 µM: 68.7%
[7]; FLIPR antagonist, in brackets under % inhib.
  IC50: 7860 nM
[8]
  inhibition at 12.5 µM: 28%
[9]; immobility, last 4 min of 6 min
  ED60 (mg/kg): 24.5 (i.p.) mg/kg
[9]; immobilization time
  Maximal Decrease (1 − compound/control) * 100%: 33.5%

From patent publication US8629169B2, “4-substituted-3-phenylsulfanylmethyl-bicyclo[3.1.0]hexane compounds as mGluR 2/3 antagonists” (Eli Lilly and Company, priority 2010, dated 2014)
